The target in experiment [1] is T1, PDE4B (human recombinant) (Homo sapiens, UniProt Q07343).
T1 construct: made in house
The experiment can be described thus: Inhibition of PDE4B activity: Radioactive Scintillation Proximity Assay (SPA). It counts as biochemical. The following applies: SPA or FP format not given; for IC50: read-out: PDE4B mean pIC50 (converted). From the text: Human recombinant PDE4B, in particular the 2B splice variant thereof (HSPDE4B2B), is disclosed in WO 94/20079 and also in M. M. McLaughlin et al., “A low Km, rolipram-sensitive, cAMP-specific phosphodiesterase from human brain: cloning and expression of cDNA, biochemical characterisation of recombinant protein, and tissue distribution of mRNA”, J. Biol. Chem., 1993, 268, 6470-6476. For example, in Example 1 of WO 94/20079, human recombinant PDE4B is described as being expressed in the PDE-deficient yeast Saccharomyces cerevisiae strain GL62, e.g. after induction by addition of 150 μM CuSO4, and 100,000×g supernatant fractions of yeast cell lysates are described for use in the harvesting of PDE4B enzyme.
(§1) 2. Inhibition of PDE3, PDE4B, PDE4D, PDE5 or PDE6 Activity: Radioactive Scintillation Proximity Assay (SPA)
(§2) The ability of compounds to inhibit catalytic activity at PDE4B or 4D (human recombinant), PDE3 (from bovine aorta), PDE5 (human recombinant) or PDE 6 (from bovine retina) was determined by Scintillation Proximity Assay (SPA) in 96-well format. Test compounds (preferably as a solution in DMSO, e.g. 2 microlitre (μl) volume) were preincubated at ambient temperature in Wallac Isoplates (code 1450-514) with PDE enzyme in 50 mM Tris-HCl buffer pH 7.5, 8.3 mM MgCl2, 1.7 mM EGTA, 0.05% (w/v) bovine serum albumin for 10-30 minutes. The enzyme concentration was adjusted so that no more than 20% hydrolysis of the substrate occurred in control wells without compound, during the incubation. For the PDE3, PDE4B and PDE4D assays [5′,8-^3H]adenosine 3′,5′-cyclic phosphate (Amersham Pharmacia Biotech, code TRK.559 or Amersham Biosciences UK Ltd, Pollards Wood, Chalfont St Giles, Buckinghamshire HP8 4SP, UK) was added to give 0.05 μCi per well and ˜10 nM final concentration. For the PDE5 and PDE6 assays [8-^3H]guanosine 3′,5′-cyclic phosphate (Amersham Pharmacia Biotech , code TRK.392) was added to give 0.05 μCi per well and ˜36 nM final concentration. Plates e.g. containing approx. 100 μl volume of assay mixture were mixed on an orbital shaker for 5 minutes and incubated at ambient temperature for 1 hour. Phosphodiesterase SPA beads (Amersham Pharmacia Biotech, code RPNQ 0150) suspended in buffer were added (˜1 mg per well) to terminate the assay. Plates were sealed and shaken and allowed to stand at ambient temperature for 35 minutes to 1 hour to allow the beads to settle. Bound radioactive product was measured using a WALLAC TRILUX 1450 Microbeta scintillation counter. […] Curves were analysed using
(§3) ActivityBase and XLfit (ID Business Solutions Limited, 2 Ocean Court, Surrey Research Park, Guildford, Surrey GU2 7QB, United Kingdom). Results were expressed as pIC50 values.

A further experiment has as its target PDE5 (human recombinant) (Homo sapiens, UniProt O76074). The experiment can be described thus: Inhibition of PDE5 activity: Radioactive Scintillation Proximity Assay (SPA). Type of experiment: biochemical. The following applies: read-out: PDE5 mean pIC50 (converted).
Description: Human recombinant PDE5 is disclosed in K. Loughney et al., “Isolation and characterisation of cDNAs encoding PDE5A, a human cGMP-binding, cGMP-specific 3′,5′-cyclic nucleotide phosphodiesterase”, Gene, 1998, 216, 139-147.
as §1, §2, §3

Counter-ions that a name gives are not always drawn.

T1 sequence (Q07343 1-564 isoform Q07343-2): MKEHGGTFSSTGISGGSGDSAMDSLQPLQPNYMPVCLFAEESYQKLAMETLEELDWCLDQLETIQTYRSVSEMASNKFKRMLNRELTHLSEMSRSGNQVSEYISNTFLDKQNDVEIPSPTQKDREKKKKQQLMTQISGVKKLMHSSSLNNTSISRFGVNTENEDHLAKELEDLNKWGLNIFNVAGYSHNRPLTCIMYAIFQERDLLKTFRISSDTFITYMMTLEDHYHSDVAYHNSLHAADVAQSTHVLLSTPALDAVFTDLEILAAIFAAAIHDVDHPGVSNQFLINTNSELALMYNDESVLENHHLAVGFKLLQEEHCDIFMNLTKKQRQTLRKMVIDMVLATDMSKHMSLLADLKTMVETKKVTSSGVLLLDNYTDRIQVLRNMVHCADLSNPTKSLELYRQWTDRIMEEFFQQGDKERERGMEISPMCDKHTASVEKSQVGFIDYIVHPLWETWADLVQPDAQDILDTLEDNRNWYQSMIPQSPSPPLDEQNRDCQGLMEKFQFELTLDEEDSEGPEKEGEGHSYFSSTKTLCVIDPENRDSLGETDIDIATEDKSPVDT

`Cc1cc(S(C)(=O)=O)cc2c(Nc3cccc(C#N)c3)c(C(N)=O)cnc12` [Example 312, 4-[(3-cyanophenyl)amino]-8-methyl-6-(methylsulfonyl)-3-quinolinecarboxamide]: the “PDE4B mean pIC50” value in experiment [1] is given as 9.4. On PDE5 (human recombinant), the IC50 is > 31600 nM.

Turning to `COc1cccc(Nc2c(C(N)=O)cnc3ccc(S(C)(=O)=O)cc23)c1` [Example 27, 4-{[3-(methyloxy)phenyl]amino}-6-(methylsulfonyl)-3-quinolinecarboxamide], the IC50 at PDE5 (human recombinant) was 15800 nM.

For `Cc1cccc(Nc2c(C(N)=O)cnc3c(Cl)cc(S(C)(=O)=O)cc23)c1` [Example 369, 8-chloro-4-[(3-methylphenyl)amino]-6-(methylsulfonyl)-3-quinolinecarboxamide], the IC50 in experiment [1] was 0.316 nM; at PDE5 (human recombinant), 7940 nM.

As for `COc1ccc(S(=O)(=O)c2cc(C)c3ncc(C(N)=O)c(Nc4cccc(OC)c4)c3c2)cc1` [Example 265, 8-methyl-4-{[3-(methyloxy)phenyl]amino}-6-{[4-(methyloxy)phenyl]sulfonyl}-3-quinolinecarboxamide], the IC50 in experiment [1] was 0.00501 nM; at PDE5 (human recombinant), 6310 nM.

As to `COc1cccc(Nc2c(C(N)=O)cnc3c(C)cc(S(=O)(=O)c4ccc(OC)c(OC)c4)cc23)c1` [Example 380, 6-{[3,4-bis(methyloxy)phenyl]sulfonyl}-8-methyl-4-{[3-(methyloxy)phenyl]amino}-3-quinolinecarboxamide], the IC50 is 0.00398 nM in experiment [1] and > 100 nM on PDE5 (human recombinant).

Consider `CN(C)c1cccc(Nc2c(C(N)=O)cnc3ccc(S(=O)(=O)C4CCCC4)cc23)c1` [Example 92], for which the values for the IC50 (in experiment [1]; on PDE5 (human recombinant)) were 20 nM and > 31600 nM, respectively.

On to `Cc1cc(S(C)(=O)=O)cc2c(Nc3cccc4c3CCO4)c(C(N)=O)cnc12` [Example 307, 4-(2,3-dihydro-1-benzofuran-4-ylamino)-8-methyl-6-(methylsulfonyl)-3-quinolinecarboxamide], for which the IC50 in experiment [1] is 0.0316 nM; on PDE5 (human recombinant), > 25100 nM.

With `COc1cccc(Nc2c(C(N)=O)cnc3c(C)cc(S(=O)(=O)c4cccc(C(=O)N(C)C)c4)cc23)c1` [Example 399, 6-({3-[(dimethylamino)carbonyl]phenyl}sulfonyl)-8-methyl-4-{[3-(methyloxy)phenyl]amino}-3-quinolinecarboxamide], the IC50 is < 0.00251 nM in experiment [1] and 2510 nM at PDE5 (human recombinant).

`Cc1cc(S(=O)(=O)C2CCN(C(=O)c3ccco3)CC2)cc2c(Nc3cccc4c3CCO4)c(C(N)=O)cnc12` [Example 446, 4-(2,3-dihydro-1-benzofuran-4-ylamino)-6-{[1-(2-furanylcarbonyl)-4-piperidinyl]sulfonyl}-8-methyl-3-quinolinecarboxamide]: the IC50 in experiment [1] was 0.00501 nM; on PDE5 (human recombinant) it was > 31600 nM.

Regarding `Cc1cc(S(=O)(=O)CCNS(C)(=O)=O)cc2c(Nc3cccc4c3CCO4)c(C(N)=O)cnc12` [Example 457, 4-(2,3-dihydro-1-benzofuran-4-ylamino)-8-methyl-6-({2-[(methylsulfonyl)amino]ethyl}sulfonyl)-3-quinolinecarboxamide], the IC50 in experiment [1] was 0.01 nM; at PDE5 (human recombinant), > 3160 nM.

`COc1cccc(Nc2c(C(N)=O)cnc3c(C)cc(S(=O)(=O)c4cncc(C(=O)N(C)C)c4)cc23)c1` [Example 546, 6-({5-[(dimethylamino)carbonyl]-3-pyridinyl}sulfonyl)-8-methyl-4-{[3-(methyloxy)phenyl]amino}3-quinolinecarboxamide hydrochloride]: the IC50 in experiment [1] is 0.02 nM; on PDE5 (human recombinant) it was 20000 nM.

Regarding `Cc1cc(S(=O)(=O)c2cccc(C(=O)N(C)C)c2)cc2c(Nc3cccc(C#N)c3)c(C(N)=O)cnc12` [Example 408, 4-[(3-cyanophenyl)amino]-6-({3-[(dimethylamino)carbonyl]phenyl}sulfonyl)-8-methyl-3-quinolinecarboxamide], in experiment [1], the IC50 was 0.00398 nM.

`Cc1cc(S(C)(=O)=O)cc2c(Nc3ccc4cnn(C)c4c3)c(C(N)=O)cnc12` [Example 309, 8-methyl-4-[(1-methyl-1H-indazol-6-yl)amino]-6-(methylsulfonyl)-3-quinolinecarboxamide]: the IC50 in experiment [1] was 0.0794 nM; at PDE5 (human recombinant), > 12600 nM.

For the molecule `Cc1cc(S(C)(=O)=O)cc2c(Nc3cc(F)cc(F)c3)c(C(N)=O)cnc12` [Example 502, 4-[(3,5-difluorophenyl)amino]-8-methyl-6-(methylsulfonyl)-3-quinolinecarboxamide], the IC50 in experiment [1] was 1.26 nM; at PDE5 (human recombinant), > 10000 nM.

In the case of `COc1cccc(Nc2c(C(N)=O)cnc3ccc(S(=O)(=O)c4cccc(C(=O)N(C)C)c4)cc23)c1` [Example 400, 6-({3-[(dimethylamino)carbonyl]phenyl}sulfonyl)-4-{[3-(methyloxy)phenyl]amino}-3-quinolinecarboxamide], the IC50 is 0.01 nM in experiment [1] and > 10000 nM at PDE5 (human recombinant).

The record behind these values is US7566786B2, “Quinoline derivatives as phosphodiesterase inhibitors” (Glaxo Group Limited, priority 2003, dated 2009).
